According to patent publication US20260356830A1, “COMPOUNDS FOR MODULATING RET PROTEIN” (Bristol-Myers Squibb Company, priority 2022, published 2026):

Molecular target: T1, CCDC6-RET (Homo sapiens, UniProt P07949+Q16204+Q96SW2)
T1 construct: CCDC6 (natural N-terminal fusion partner, UniProt Q16204); endogenous in cells; host or cells: TPC-1 (parental, papillary thyroid carcinoma)
Assay: Cellular RET degradation, AlphaLISA, TPC-1 cell line
Type: cell-based
Settings: for Dmax: TPC1, human, 24 h, read-out: Cell Density TPC-1/CCDC6-RET Ymax %; for DC50: read-out: Cell Density TPC-1/CCDC6-RET DC50, half-maximal degradation concentration, TPC-1 (CCDC6-RET), 24 hrs
Outline: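 Luminescent AlphaLISA read of RET abundance in lysates after 24 h compound exposure (37 °C, 2% FBS DMEM) of CCDC6-RET-bearing TPC-1 cells. % degradation relative to DMSO (high) and media (low) controls, fitted to 4-parameter logistic curve for DC50 and Ymax.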

T1 sequence (Q16204+P07949 fused): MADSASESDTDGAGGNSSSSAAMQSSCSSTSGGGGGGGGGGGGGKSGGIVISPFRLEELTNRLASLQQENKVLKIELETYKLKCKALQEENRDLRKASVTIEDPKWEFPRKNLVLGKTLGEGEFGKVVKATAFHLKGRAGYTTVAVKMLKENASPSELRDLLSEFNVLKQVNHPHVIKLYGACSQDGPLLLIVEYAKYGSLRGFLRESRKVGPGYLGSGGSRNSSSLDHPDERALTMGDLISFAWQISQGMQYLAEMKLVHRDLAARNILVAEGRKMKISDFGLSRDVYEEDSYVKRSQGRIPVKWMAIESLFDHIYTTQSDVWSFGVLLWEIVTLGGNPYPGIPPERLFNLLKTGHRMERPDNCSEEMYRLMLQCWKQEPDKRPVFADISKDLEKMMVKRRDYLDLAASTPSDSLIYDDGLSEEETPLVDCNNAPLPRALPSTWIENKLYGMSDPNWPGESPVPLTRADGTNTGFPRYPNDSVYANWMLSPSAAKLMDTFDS
T1 sequence (Q96SW2 whole entry, the tested form may be a part): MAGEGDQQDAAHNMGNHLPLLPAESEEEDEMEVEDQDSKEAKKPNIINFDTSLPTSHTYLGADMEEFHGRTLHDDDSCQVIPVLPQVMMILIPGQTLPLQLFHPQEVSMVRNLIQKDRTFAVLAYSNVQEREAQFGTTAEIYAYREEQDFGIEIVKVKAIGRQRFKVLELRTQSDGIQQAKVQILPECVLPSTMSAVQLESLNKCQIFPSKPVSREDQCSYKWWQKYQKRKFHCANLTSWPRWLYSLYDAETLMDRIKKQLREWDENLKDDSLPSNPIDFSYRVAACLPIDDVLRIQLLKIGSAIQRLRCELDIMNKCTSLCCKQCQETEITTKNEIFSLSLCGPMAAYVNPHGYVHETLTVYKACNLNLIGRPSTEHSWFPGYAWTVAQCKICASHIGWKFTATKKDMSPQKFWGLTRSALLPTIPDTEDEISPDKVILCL
T1 sequence (Q16531 whole entry partner, the tested form may be a part): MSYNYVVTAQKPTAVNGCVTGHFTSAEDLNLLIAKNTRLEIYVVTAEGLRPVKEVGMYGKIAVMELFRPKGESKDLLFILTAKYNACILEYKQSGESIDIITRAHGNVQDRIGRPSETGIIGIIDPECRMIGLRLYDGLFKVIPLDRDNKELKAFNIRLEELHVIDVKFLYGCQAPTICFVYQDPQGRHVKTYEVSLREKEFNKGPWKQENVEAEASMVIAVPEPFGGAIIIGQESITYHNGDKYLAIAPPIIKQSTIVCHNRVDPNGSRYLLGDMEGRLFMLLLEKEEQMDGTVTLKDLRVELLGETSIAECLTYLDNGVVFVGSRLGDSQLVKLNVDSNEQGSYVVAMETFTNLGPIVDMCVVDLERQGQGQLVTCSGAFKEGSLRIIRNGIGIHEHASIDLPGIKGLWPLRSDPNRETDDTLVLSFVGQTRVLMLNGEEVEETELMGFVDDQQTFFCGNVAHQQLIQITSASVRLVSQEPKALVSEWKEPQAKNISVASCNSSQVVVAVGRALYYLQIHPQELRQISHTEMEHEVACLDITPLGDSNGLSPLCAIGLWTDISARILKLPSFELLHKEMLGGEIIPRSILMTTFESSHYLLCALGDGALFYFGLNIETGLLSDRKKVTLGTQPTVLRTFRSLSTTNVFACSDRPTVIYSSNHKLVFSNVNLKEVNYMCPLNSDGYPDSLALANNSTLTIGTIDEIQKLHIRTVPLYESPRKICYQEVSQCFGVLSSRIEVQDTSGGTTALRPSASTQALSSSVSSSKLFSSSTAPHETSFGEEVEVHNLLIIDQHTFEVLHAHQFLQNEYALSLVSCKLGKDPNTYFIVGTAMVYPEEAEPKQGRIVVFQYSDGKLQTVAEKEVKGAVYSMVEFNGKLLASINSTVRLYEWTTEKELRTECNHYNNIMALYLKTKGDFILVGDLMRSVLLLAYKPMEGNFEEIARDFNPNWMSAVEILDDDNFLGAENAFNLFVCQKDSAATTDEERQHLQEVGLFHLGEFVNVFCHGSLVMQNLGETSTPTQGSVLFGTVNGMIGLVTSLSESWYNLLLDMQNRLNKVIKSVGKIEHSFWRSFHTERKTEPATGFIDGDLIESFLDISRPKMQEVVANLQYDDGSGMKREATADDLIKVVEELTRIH

SMILES	Dmax [%]	DC50 [nM]
CCOc1cc(-c2ccc(N3CCC(CN4CCC5(CC4)CCN(C(=O)CCN4CCN(c6ccc7c(c6)CN(C6CCC(=O)NC6=O)C7=O)CC4)CC5)(NC(=O)c4cc(F)ccc4F)CC3)nc2)c2c(C#N)cnn2c1 (stereo not drawn) [Example 87, N-[1-(5-{3-cyano-6-ethoxypyrazolo[1,5-a]pyridin-4-yl}pyridin-2-yl)-4-{[9-(3-{4-[2-(2,6-dioxopiperidin-3-yl)-1-oxo-2,3-dihydro-1H-isoindol-5-yl]piperazin-1-yl}propanoyl)-3,9-diazaspiro[5.5]undecan-3-yl]methyl}piperidin-4-yl]-2,5-difluorobenzamide]	> 90	2 to 10
CCOc1cc(-c2ccc(N3CCC(Cc4ccccc4)(NC(=O)CC4CCN(C(=O)CCN5CCC(c6ccc7c(c6)C(=O)N(C6CCC(=O)NC6=O)C7)CC5)CC4)CC3)nc2)c2c(C#N)cnn2c1 (stereo not drawn) [Example 54, N-[4-benzyl-1-[5-(3-cyano-6-ethoxy-pyrazolo[1,5-a]pyridin-4-yl)-2-pyridyl]-4-piperidyl]-2-[1-[3-[4-[2-(2,6-dioxo-3-piperidyl)-3-oxo-isoindolin-5-yl]-1-piperidyl]propanoyl]-4-piperidyl]acetamide]	60 to 90	100 to 2000
CCOc1cc(-c2ccc(N3CCC(CN4CCN(C(=O)CCCN5CCN(c6ccc7c(c6)CN(C6CCC(=O)NC6=O)C7=O)CC5)CC4)(NC(=O)c4cc(F)ccc4F)CC3)nc2)c2c(C#N)cnn2c1 (stereo not drawn) [Example 14, N-(1-(5-(3-cyano-6-ethoxypyrazolo[1,5-a]pyridin-4-yl)pyridin-2-yl)-4-((4-(4-(4-(2-(2,6-dioxopiperidin-3-yl)-1-oxoisoindolin-5-yl)piperazin-1-yl)butanoyl)piperazin-1-yl)methyl)piperidin-4-yl)-2,5-difluorobenzamide]	60 to 90	2 to 10
CCOc1cc(-c2ccc(N3CCC(CN4CCN(C(=O)C5CC6(CC(Nc7ccc8c(N9CCC(=O)NC9=O)nn(C)c8c7)C6)C5)CC4)(NC(=O)c4cc(F)ccc4F)CC3)nc2)c2c(C#N)cnn2c1 (stereo not drawn) [Example 93, N-[1-(5-{3-cyano-6-ethoxypyrazolo[1,5-a]pyridin-4-yl}pyridin-2-yl)-4-{[4-(6-{[3-(2,4-dioxo-1,3-diazinan-1-yl)-1-methyl-1H-indazol-6-yl]amino}spiro[3.3]heptane-2-carbonyl)piperazin-1-yl]methyl}piperidin-4-yl]-2,5-difluorobenzamide]	> 90	2 to 10
CCOc1cc(-c2ccc(N3CCC(CN4CCN(C5CC6(CC(C(=O)N7CCN(c8ccc9c(c8)CN(C8CCC(=O)NC8=O)C9=O)CC7)C6)C5)CC4)(NC(=O)c4cc(F)ccc4F)CC3)nc2)c2c(C#N)cnn2c1 (stereo not drawn) [Example 94, N-[1-(5-{3-cyano-6-ethoxypyrazolo[1,5-a]pyridin-4-yl}pyridin-2-yl)-4-{[4-(6-{4-[2-(2,6-dioxopiperidin-3-yl)-1-oxo-2,3-dihydro-1H-isoindol-5-yl]piperazine-1-carbonyl}spiro[3.3]heptan-2-yl)piperazin-1-yl]methyl}piperidin-4-yl]-2,5-difluorobenzamide]	60 to 90	2 to 10
CCOc1cc(-c2ccc(N3CCC(CN4CCN(C(=O)CCN5CCC6(CC5)CCN(c5ccc7c(c5)CN(C5CCC(=O)NC5=O)C7=O)CC6)CC4)(NC(=O)c4cc(F)ccc4F)CC3)nc2)c2c(C#N)cnn2c1 (stereo not drawn) [Example 91, N-[1-(5-{3-cyano-6-ethoxypyrazolo[1,5-a]pyridin-4-yl}pyridin-2-yl)-4-{[4-(3-{9-[2-(2,6-dioxopiperidin-3-yl)-1-oxo-2,3-dihydro-1H-isoindol-5-yl]-3,9-diazaspiro[5.5]undecan-3-yl}propanoyl)piperazin-1-yl]methyl}piperidin-4-yl]-2,5-difluorobenzamide]	60 to 90	< 2
CCOc1cc(-c2ccc(N3CCC(CN4CCN(C(=O)CCN5CC(Oc6ccc7c(c6)CN(C6CCC(=O)NC6=O)C7=O)C5)CC4)(NC(=O)c4cc(F)ccc4F)CC3)nc2)c2c(C#N)cnn2c1 (stereo not drawn) [Example 120, N-[1-(5-{3-cyano-6-ethoxypyrazolo[1,5-a]pyridin-4-yl}pyridin-2-yl)-4-({4-[3-(3-{[2-(2,6-dioxopiperidin-3-yl)-1-oxo-2,3-dihydro-1H-isoindol-5-yl]oxy}azetidin-1-yl)propanoyl]piperazin-1-yl}methyl)piperidin-4-yl]-2,5-difluorobenzamide]	> 90	< 2
CCOc1cc(-c2ccc(N3CCC(CN4CCN(C(=O)CCN5CCC(c6ccc7c(c6)C(=O)N(C6CCC(=O)NC6=O)C7)CC5)CC4)(NC(=O)C4CC4)CC3)nc2)c2c(C#N)cnn2c1 (stereo not drawn) [Example 9, N-(1-(5-(3-cyano-6-ethoxypyrazolo[1,5-a]pyridin-4-yl)pyridin-2-yl)-4-((4-(3-(4-(2-(2,6-dioxopiperidin-3-yl)-3-oxoisoindolin-5-yl)piperidin-1-yl)propanoyl)piperazin-1-yl)methyl)piperidin-4-yl)cyclopropanecarboxamide]	> 90	2 to 10

Other lines, results leading:

Dmax [%]	DC50 [nM]	SMILES
60 to 90	2 to 10	CCOc1cc(-c2ccc(N3CCC(NC(=O)c4cc(F)ccc4F)(C(=O)NCCCCCCNc4ccc(N5CCC(=O)NC5=O)cc4)CC3)nc2)c2c(C#N)cnn2c1 [Example 148, 1-(5-{3-cyano-6-ethoxypyrazolo[1,5-a]pyridin-4-yl}pyridin-2-yl)-4-(2,5-difluorobenzamido)-N-(6-{[4-(2,4-dioxo-1,3-diazinan-1-yl)phenyl]amino}hexyl)piperidine-4-carboxamide]
> 90	10 to 100	CCOc1cc(-c2ccc(N3CCC(CN(C)C(=O)CCCCCCN4CCC(c5ccc6c(c5)C(=O)N(C5CCC(=O)NC5=O)C6)CC4)(NC(=O)c4cc(F)ccc4F)CC3)nc2)c2c(C#N)cnn2c1 (stereo not drawn) [Example 146, N-[1-(5-{3-cyano-6-ethoxypyrazolo[1,5-a]pyridin-4-yl}pyridin-2-yl)-4-[(7-{4-[2-(2,6-dioxopiperidin-3-yl)-3-oxo-2,3-dihydro-1H-isoindol-5-yl]piperidin-1-yl}-N-methylheptanamido)methyl]piperidin-4-yl]-2,5-difluorobenzamide]
60 to 90	2 to 10	CCOc1cc(-c2ccc(N3CCC(NC(=O)c4cc(F)ccc4F)(C(=O)NCCCCN4CCN(c5ccc6c(c5)C(=O)N(C5CCC(=O)NC5=O)C6)CC4)CC3)nc2)c2c(C#N)cnn2c1 (stereo not drawn) [Example 159, 1-(5-{3-cyano-6-ethoxypyrazolo[1,5-a]pyridin-4-yl}pyridin-2-yl)-4-(2,5-difluorobenzamido)-N-(4-{4-[2-(2,6-dioxopiperidin-3-yl)-3-oxo-2,3-dihydro-1H-isoindol-5-yl]piperazin-1-yl}butyl)piperidine-4-carboxamide]
60 to 90	2 to 10	CCOc1cc(-c2ccc(N3CCC(NC(=O)c4cc(F)ccc4F)(C(=O)NCCCCCCCCNc4ccc5c(N6CCC(=O)NC6=O)nn(C)c5c4)CC3)nc2)c2c(C#N)cnn2c1 [Example 152, 1-(5-{3-cyano-6-ethoxypyrazolo[1,5-a]pyridin-4-yl}pyridin-2-yl)-4-(2,5-difluorobenzamido)-N-(8-{[3-(2,4-dioxo-1,3-diazinan-1-yl)-1-methyl-1H-indazol-6-yl]amino}octyl)piperidine-4-carboxamide]
